Our source for the IC50 values is patent US20230124361A1, “SMALL MOLECULE STING ANTAGONISTS” (CURADEV PHARMA PVT. LTD., priority 2020, published 2023).

In this assay the target is T1, STING (Homo sapiens, UniProt Q86WV6, G230A/H232R/R293Q/R71H).
T1 construct: host or cells: THP1-Dual cells (human THP-1 monocyte line with Lucia/SEAP reporters)
T1 sequence (Q86WV6 whole entry R71H/G230A/H232R/R293Q): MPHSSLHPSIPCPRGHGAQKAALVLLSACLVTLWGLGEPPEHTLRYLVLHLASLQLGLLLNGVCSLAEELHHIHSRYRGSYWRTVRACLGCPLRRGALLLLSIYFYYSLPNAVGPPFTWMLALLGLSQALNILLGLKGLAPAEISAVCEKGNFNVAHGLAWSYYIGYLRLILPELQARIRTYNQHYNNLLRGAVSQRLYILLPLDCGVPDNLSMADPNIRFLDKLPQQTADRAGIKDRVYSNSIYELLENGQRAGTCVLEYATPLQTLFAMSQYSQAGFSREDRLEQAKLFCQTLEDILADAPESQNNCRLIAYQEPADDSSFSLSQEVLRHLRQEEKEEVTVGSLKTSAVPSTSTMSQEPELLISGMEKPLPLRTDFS
As to the kind of experiment: Reporter gene expression assay in THP1-Dual cells (IRF pathway Lucia luciferase, 2',3'-cGAMP stimulation). The format is cell-based. The conditions noted are these: 10 min preincubation, 5 μM 2',3'-cGAMP, 20 hr, IRF reporter QUANTI-Luc, read-out: THP-1 (HAQ) Activity. How it is done: Reporter Gene Expression Assay in THP-1 Cells
THP1-Dual™ cells (Invivogen) were derived from the human THP-1 monocyte cell line by stable integration of two inducible reporter constructs. As a result, THP1-Dual™ cells allow the simultaneous study of the IRF pathway, by assessing the activity of a secreted luciferase (Lucia) and the NF-κB pathway, by monitoring the activity of secreted SEAP. 5×10^4 THP1-Dual™ cells were seeded in 384-well plates in growth medium and preincubated with novel compounds for 10 minutes followed by stimulation with 5 μM 2′,3′-cGAMP. After 20 hr of stimulation the supernatant was removed and the IRF pathway reporter protein was readily measured in the cell culture supernatant using QUANTI-Luc™ (Invivogen), a luciferase detection reagent on a Spectramax i3X luminometer.
In the tables below, IC50 value ranges for exemplary compounds are given. The IC50 ranges are indicated as “A” for values less than or equal to 1 μM, “B” for values greater than 1 μM and less than or equal to 10 μM, and “C” for values greater than 10 μM.
(In general: In a reporter assay the amount or activity of a reporter protein is the signal.)
Take `Cc1cc(CN2C(=O)COc3cc(NC(=O)Nc4ccc5cc[nH]c5c4)ccc32)ccc1F` [Example 108, 1-(4-(4-fluoro-3-methylbenzyl)-3-oxo-3,4-dihydro-2H-benzo[b][1,4]oxazin-7-yl)-3-(1H-indol-6-yl)urea]: the IC50 was ≤ 1 µM.

In the case of `O=C(Nc1ccc2c(c1)N(Cc1ccccc1)CCO2)Nc1ccc2cc[nH]c2c1` [Example 56, 1-(4-benzyl-3,4-dihydro-2H-benzo[b][1, 4]oxazin-6-yl)-3-(1H-indol-6-yl)urea], the IC50 lay in the range of 1 to 10 µM.

Take `O=C(Nc1ccc2c(c1)OCC(=O)N2Cc1cc2c(cc1Cl)OCO2)Nc1ccc2cc[nH]c2c1` [Example 103, 1-(4-((6-chlorobenzo[d][1,3]dioxol-5-yl)methyl)-3-oxo-3,4-dihydro-2H-benzo[b][1,4]oxazin-7-yl)-3-(1H-indol-6-yl)urea]: the IC50 is ≤ 1 µM.

For the compound `O=C(Nc1ccc2c(c1)OCC(=O)N2Cc1cc(Cl)cc(C(F)(F)F)c1)Nc1ccc2cc[nH]c2c1` [Example 99, l-(4-(3-chloro-5-(trifluoromethyl)benzyl)-3-oxo-3,4-dihydro-2H-benzo[b][1, 4]oxazin-7-yl)-3-(1H-indol-6-yl)urea], the IC50 is ≤ 1 µM.

Take `O=C(Nc1ccc2c(c1)OCC(=O)N2CCOc1ccccc1Cl)Nc1ccc2cc[nH]c2c1` [Example 100, 1-(4-(2-(2-chlorophenoxy)ethyl)-3-oxo-3,4-dihydro-2H-benzo[b][1,4]oxazin-7-yl)-3-(1H-indol-6-yl)urea]: the IC50 lay within 1 to 10 µM.

With `O=C(Nc1ccc2c(c1)OCC(=O)N2Cc1ccncc1)Nc1ccc2cc[nH]c2c1` [Example 147, 1-(iH-indol-6-yl)-3-(3-oxo-4-(pyridin-4-ylmethyl)-3,4-dihydro-2H-benzo[b][1, 4]oxazin-7-yl)urea], the IC50 lay in the range of 1 to 10 µM.

With `O=C(Nc1ccc(F)cc1)Nc1ccc2c(c1)N(Cc1ccccc1)C(=O)CS2` [Example 3, 1-(4-benzyl-3-oxo-3,4-dihydro-2H-benzo[b][i, 4]thiazin-6-yl)-3-(4-fluorophenyl) urea], the IC50 fell in the range of 1 to 10 µM.

As to `O=C(Nc1ccc2c(c1)NCC2)Nc1ccc2c(c1)OCC(=O)N2Cc1ccccc1` [Example 142, 1-(4-benzyl-3-oxo-3,4-dihydro-2H-benzo[b][1, 4]oxazin-7-yl)-3-(indolin-6-yl)urea], the IC50 is 1 to 10 µM.

`O=C(NCc1ccco1)Nc1ccc2c(c1)OCC(=O)N2Cc1ccccc1` [Example 130, 1-(4-benzyl-3-oxo-3,4-dihydro-2H-benzo[b][1, 4]oxazin-7-yl)-3-(furan-2-ylmethyl)urea]: the IC50 is > 10 µM.

Turning to `NCC1COc2ccc(NC(=O)Nc3ccc4cc[nH]c4c3)cc2N1Cc1ccccc1` (stereo not shown) [Example 82], the IC50 was > 10 µM.

As for `NC(=O)C(c1ccccc1)N1CCOc2ccc(NC(=O)Nc3ccc4cc[nH]c4c3)cc21` (stereo not shown) [Example 84, 2-(6-(3-(1H-Indol-6-yl)ureido)-2,3-dihydro-4H-benzo[b][1,4]oxazin-4-yl)-2-phenylacetamide], the IC50 lay in the range of 1 to 10 µM.

For `NC(=O)c1cc2c(cc1NC(=O)Nc1ccc3cc[nH]c3c1)OCC(=O)N2Cc1ccccc1` [Example 165, 7-(3-(H-indol-6-yl)ureido)-4-benzyl-3-oxo-3,4-dihydro-2H-benzo[b][1, 4]oxazine-6-carboxamide], the IC50 was 1 to 10 µM.

For the compound `N#Cc1ccc(CN2C(=O)COc3cc(NC(=O)Nc4ccc5cc[nH]c5c4)ccc32)c(F)c1` [Example 120, 1-(4-(4-cyano-2-fluorobenzyl)-3-oxo-3,4-dihydro-2H-benzo[b][1,4]oxazin-7-yl)-3-(1H-indol-6-yl)urea], the IC50 is 1 to 10 µM.

For `O=C(Nc1ccc2c(c1)OCC(=O)N2Cc1nc(-c2ccccc2)no1)Nc1ccc2cc[nH]c2c1` [Example 121, 1-(1H-indol-6-yl)-3-(3-oxo-4-((3-phenyl-1,2,4-oxadiazol-5-yl)methyl)-3,4-dihydro-2H-benzo[b][1,4]oxazin-7-yl)urea], the IC50 is 1 to 10 µM.

Regarding `O=C(Nc1ccc2c(c1)OCC(=O)N2CC1CCCO1)Nc1ccc2cc[nH]c2c1` (stereo not shown) [Example 146, 1-(1H-indol-6-yl)-3-(3-oxo-4-((tetrahydro-furan-2-yl)methyl)-3,4-dihydro-2H-benzo[b][1, 4]oxazin-7-yl)urea], the IC50 was 1 to 10 µM.

`O=C(Nc1ccc2c(c1)OCCN2c1ccccc1)Nc1ccc2cc[nH]c2c1` [Example 181, 1-(1H-indol-6-yl)-3-(4-phenyl-3,4-dihydro-2H-benzo[b][1,4]oxazin-7-yl)urea]: the IC50 was ≤ 1 µM.

Regarding `N#Cc1ccc(CNC(=O)Nc2ccc3c(c2)N(Cc2ccccc2)C(=O)CS3)cc1` [Example 12, 1-(4-benzyl-3-oxo-3,4-dihydro-2H-benzo[b][1, 4]thiazin-6-yl)-3-(4-cyanobenzyl) urea], the IC50 was > 10 µM.

`O=C(Nc1ccc2c(c1)OCC(=O)N2Cc1ccncn1)Nc1ccc2cc[nH]c2c1` [Example 160, 1-(1H-indol-6-yl)-3-(3-oxo-4-(pyrimidin-4-ylmethyl)-3,4-dihydro-2H-benzo[b][1, 4]oxazin-7-yl)urea]: the IC50 lay in the range of 1 to 10 µM.

Turning to `O=C(Nc1ccc2c(c1)OCC(=O)N2Cc1ccc(C(F)(F)F)nc1)Nc1ccc2cc[nH]c2c1` [Example 104, 1-(1H-indol-6-yl)-3-(3-oxo-4-((6-(trifluoromethyl)pyridin-3-yl)methyl)-3,4-dihydro-2H-benzo[b][1,4]oxazin-7-yl)urea], the IC50 was ≤ 1 µM.

For the compound `CS(=O)(=O)c1cc(Cl)ccc1CN1C(=O)COc2cc(NC(=O)Nc3ccc4cc[nH]c4c3)ccc21` [Example 122, 1-(4-(4-chloro-2-(methylsulfonyl)benzyl)-3-oxo-3,4-dihydro-2H-benzo[b][1,4]oxazin-7-yl)-3-(1H-indol-6-yl)urea], the IC50 lay in the range of 1 to 10 µM.

In the case of `O=C1CSc2ccc(NC(=O)Nc3ccc4cc[nH]c4c3)cc2N1` [Example 195, 1-(1H-indol-6-yl)-3-(3-oxo-3,4-dihydro-2H-benzo[b][1, 4]thiazin-6-yl)urea], the IC50 was > 10 µM.

In the case of `O=C(Nc1ccc2c(c1)N(Cc1noc3ccccc13)C(=O)CS2)Nc1ccc2cc[nH]c2c1` [Example 24, 1-(4-(benzo[d]isoxazol-3-ylmethyl)-3-oxo-3,4-dihydro-2H-benzo [b][1,4]thiazin-6-yl)-3-(1H-indol-6-yl)urea], the IC50 is 1 to 10 µM.

`O=C(Nc1ccc2c(c1)N(Cc1ccccc1)CCS2)Nc1c[nH]c2ccccc12` [Example 64, 1-(4-benzyl-3,4-dihydro-2H-benzo[b][1, 4]thiazin-6-yl)-3-(1H-indol-3-yl)urea]: the IC50 lay in the range of 1 to 10 µM.

On to `O=C(Nc1ccc2c(c1)N(Cc1c(F)cccc1Cl)CCO2)Nc1ccc2cc[nH]c2c1` [Example 169, 1-(4-(2-chloro-6-fluorobenzyl)-3,4-dihydro-2H-benzo[b][1, 4]oxazin-6-yl)-3-(1H-indol-6-yl)urea], for which the IC50 was ≤ 1 µM.

Consider `O=C(Nc1ccc2c(c1)OCC(=O)N2Cc1ccccc1C(F)(F)F)Nc1ccc2cc[nH]c2c1` [Example 113, 1-(1H-indol-6-yl)-3-(3-oxo-4-(2-(trifluoromethyl)benzyl)-3,4-dihydro-2H-benzo[b][1,4]oxazin-7-yl)urea], for which the IC50 lay in the range of 1 to 10 µM.

Regarding `O=C(Nc1ccc2c(c1)N(Cc1ccccc1)CC[S+]2[O-])Nc1ccc2cc[nH]c2c1` (stereo not shown) [Example 167, 1-(4-benzyl-1-oxido-3,4-dihydro-2H-benzo[b][1, 4]thiazin-6-yl)-3-(1H-indol-6-yl)urea], the IC50 was > 10 µM.

Turning to `O=C(Nc1ccc2c(c1)N(Cc1ccccc1)CCO2)Nc1ccc2cc[nH]c2n1` [Example 172, 1-(4-benzyl-3,4-dihydro-2H-benzo[b][1, 4]oxazin-6-yl)-3-(1H-pyrrolo[2,3-b]pyridin-6-yl)urea], the IC50 lay in the range of 1 to 10 µM.

Turning to `CN1Cc2ccc(NC(=O)Nc3ccc(F)cc3)cc2N(Cc2ccccc2)C1=O` [Example 39, 1-(1-Benzyl-3-methyl-2-oxo-1,2,3,4-tetrahydroquinazolin-7-yl)-3-(4-fluorophenyl)urea], the IC50 was in the range of 1 to 10 µM.

`CNC(=O)C(c1ccccc1)N1CCOc2ccc(NC(=O)Nc3ccc4cc[nH]c4c3)cc21` (stereo not shown) [Example 189, 2-(6-(3-(1H-indol-6-yl)ureido)-2,3-dihydro-4H-benzo[b][1,4]oxazin-4-yl)-N-methyl-2-phenylacetamide]: the IC50 lay within 1 to 10 µM.

For `O=C(Nc1ccncc1)Nc1ccc2c(c1)N(Cc1ccccc1)C(=O)CS2` [Example 6, 1-(4-benzyl-3-oxo-3,4-dihydro-2H-benzo[b][1, 4]thiazin-6-yl)-3-(pyridin-4-yl)urea], the IC50 fell in the range of 1 to 10 µM.

For the compound `N#CC1COc2cc(NC(=O)Nc3ccc4cc[nH]c4c3)ccc2N1Cc1ccccc1` (stereo not shown) [Example 186, 1-(4-benzyl-3-cyano-3,4-dihydro-2H-benzo[b][1,4]oxazin-7-yl)-3-(1H-indol-6-yl)urea], the IC50 was in the range of 1 to 10 µM.

As to `O=C(Nc1ccc2c(c1)OCC(=O)N2Cc1c(F)cccc1Cl)Nc1ccc2cc[nH]c2c1` [Example 93, l-(4-(2-chloro-6-fluorobenzy 1)-3-oxo-3,4-dihydro-2H-benzo[b][i, 4]oxazin-7-yl)-3-(1H-indol-6-yl)urea], the IC50 was 1 to 10 µM.

For the compound `O=C(Nc1ccc2c(c1)OCC(=O)N2Cc1ccccn1)Nc1ccc2cc[nH]c2c1` [Example 149, 1-(iH-indol-6-yl)-3-(3-oxo-4-(pyridin-2-ylmethyl)-3,4-dihydro-2H-benzo[b][1, 4]oxazin-7-yl)urea], the IC50 lay in the range of 1 to 10 µM.

In the case of `N#C/N=C(\Nc1ccc2c(c1)N(Cc1ccccc1)C(=O)CS2)Nc1ccc2cc[nH]c2c1` [Example 192], the IC50 was > 10 µM.
